# Experimental data: US4218395A, “Ureylene naphthalene sulfonic acids” (American Cyanamid Company, priority 1978, dated 1980)
# Structures can show the parent of a compound that is named as a salt.
# What was measured:
# human C1 = molecular target: T1, human C1 (Homo sapiens, UniProt P09871); assay: Test, Code 026 (C1 inhibitor); assay type: biochemical; conditions: activity in wells, twofold serial dilution assay; higher well number indicates higher activity
# T1 construct: hemolytic test of fluid-phase C2 destruction in presence of C4
# T1 sequence (P09871 16-688): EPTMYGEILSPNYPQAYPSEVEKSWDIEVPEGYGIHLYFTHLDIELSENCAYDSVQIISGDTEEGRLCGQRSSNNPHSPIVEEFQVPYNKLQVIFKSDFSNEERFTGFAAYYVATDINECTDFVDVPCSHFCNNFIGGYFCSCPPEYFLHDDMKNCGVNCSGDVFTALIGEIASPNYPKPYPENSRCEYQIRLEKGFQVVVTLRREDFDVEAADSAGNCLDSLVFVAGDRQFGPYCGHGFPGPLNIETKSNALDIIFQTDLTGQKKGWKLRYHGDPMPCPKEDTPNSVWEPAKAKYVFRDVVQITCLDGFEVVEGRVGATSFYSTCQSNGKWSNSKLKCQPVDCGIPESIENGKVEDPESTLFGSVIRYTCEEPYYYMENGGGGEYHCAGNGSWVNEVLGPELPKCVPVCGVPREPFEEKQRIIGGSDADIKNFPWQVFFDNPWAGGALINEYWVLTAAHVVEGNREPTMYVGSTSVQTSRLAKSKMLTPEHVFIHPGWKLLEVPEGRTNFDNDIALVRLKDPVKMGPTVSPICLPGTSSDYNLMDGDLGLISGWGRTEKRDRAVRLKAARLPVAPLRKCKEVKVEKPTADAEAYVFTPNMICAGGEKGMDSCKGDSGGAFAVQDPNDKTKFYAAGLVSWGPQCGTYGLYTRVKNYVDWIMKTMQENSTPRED
# T1 sequence (P00736 18-705 partner): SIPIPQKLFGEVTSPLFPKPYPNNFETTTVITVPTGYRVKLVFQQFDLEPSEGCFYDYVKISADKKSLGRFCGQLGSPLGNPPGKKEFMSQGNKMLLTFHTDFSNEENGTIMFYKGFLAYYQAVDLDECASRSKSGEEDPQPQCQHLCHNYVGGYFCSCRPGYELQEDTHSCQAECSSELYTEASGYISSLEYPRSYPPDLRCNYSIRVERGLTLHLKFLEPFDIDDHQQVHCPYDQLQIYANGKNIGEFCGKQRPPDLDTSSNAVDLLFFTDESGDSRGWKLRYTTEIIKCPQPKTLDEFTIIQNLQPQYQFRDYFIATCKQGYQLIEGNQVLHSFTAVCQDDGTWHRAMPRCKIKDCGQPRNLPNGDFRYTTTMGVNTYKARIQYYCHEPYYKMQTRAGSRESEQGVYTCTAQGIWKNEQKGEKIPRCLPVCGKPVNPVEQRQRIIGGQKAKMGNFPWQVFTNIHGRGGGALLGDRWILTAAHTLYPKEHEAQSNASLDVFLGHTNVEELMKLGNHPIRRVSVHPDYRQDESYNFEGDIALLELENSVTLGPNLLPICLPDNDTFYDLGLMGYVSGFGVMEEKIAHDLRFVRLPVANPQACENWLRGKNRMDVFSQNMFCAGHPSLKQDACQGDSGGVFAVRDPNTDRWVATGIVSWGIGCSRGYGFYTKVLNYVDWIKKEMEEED
# T1 sequence (P02745 23-245 partner): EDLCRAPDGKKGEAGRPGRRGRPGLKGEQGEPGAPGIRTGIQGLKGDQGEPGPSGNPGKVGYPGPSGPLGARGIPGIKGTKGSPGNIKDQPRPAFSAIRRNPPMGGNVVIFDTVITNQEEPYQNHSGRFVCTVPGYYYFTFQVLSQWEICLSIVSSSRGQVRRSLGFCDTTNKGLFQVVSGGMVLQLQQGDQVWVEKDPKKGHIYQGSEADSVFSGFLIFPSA
# T1 sequence (P02746 28-253 partner): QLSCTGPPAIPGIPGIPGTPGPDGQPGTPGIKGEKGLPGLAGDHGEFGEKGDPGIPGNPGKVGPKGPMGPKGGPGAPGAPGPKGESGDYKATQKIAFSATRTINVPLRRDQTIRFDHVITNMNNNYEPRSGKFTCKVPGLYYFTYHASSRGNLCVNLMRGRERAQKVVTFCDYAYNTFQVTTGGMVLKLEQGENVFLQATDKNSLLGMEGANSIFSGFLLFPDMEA
# T1 sequence (P02747 29-245 partner): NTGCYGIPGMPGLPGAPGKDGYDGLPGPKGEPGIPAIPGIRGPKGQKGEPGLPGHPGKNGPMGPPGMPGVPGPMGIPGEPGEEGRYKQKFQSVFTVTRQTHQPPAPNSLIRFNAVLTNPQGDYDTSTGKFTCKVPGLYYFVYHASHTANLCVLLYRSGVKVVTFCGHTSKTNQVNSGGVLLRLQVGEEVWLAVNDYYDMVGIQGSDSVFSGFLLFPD
# Description: (§1) An active inhibitor protects C2 from C1 and C4; (ii) Test, Code 035 (C3-C9 inhibitor)-This test determines the ability of the late components of human complement (C3-C9) to lyse EAC 142 in the presence of appropriate dilutions of the test compound. An active inhibitor protects EAC 142 from lysis by human C3-C9; (iii) Test, Code 036 (C-Shunt inhibitor)--In this test human erythrocytes rendered fragile are lysed in autologous serum via the shunt pathway activated by cobra venom factor in the presence of appropriate dilutions of the test compound. Inhibition of the shunt pathway results in failure of lysis; (iv) Forssman Vasculitis Test--Here, the well known complement dependent lesion, Forssman vasculitis, is produced in guinea pigs by intradermal injection of rabbit anti-Forssman antiserum. The lesion is measured in terms of diameter, edema and hemorrhage and the extent to which a combined index of these is inhibited by prior intraperitoneal injection of the test compound at 200 mg/kg is then reported, unless otherwise stated; (v) Forssman Shock Test--Lethal shock is produced in guinea pigs by an i.v. injection of anti-Forssman antiserum and the harmonic mean death time of treated guinea pigs is compared with that of simultaneous controls; (vi) Complement Level Reduction Test--In this test, the above dosed guinea pigs, or others, are bled for serum and the complement level is determined in undiluted serum by the capillary tube method of U.S. Pat. No. 3,876,376 and compared to undosed control guinea pigs; and (vii) Cap 50 Test--Here, appropriate amounts of the test compound are added to a pool of guinea pig serum in vitro, after which the undiluted serum capillary tube assay referred to above is run. The concentration of compound inhibiting 50% is reported.
# (§2) With reference to Table I, guinea pigs weighing about 300 g were dosed intravenously (i.v.) or intraperitoneally (i.p.) with 200 mg/kg of the test compound dissolved in saline and adjusted to pH 7-8. […] Percent inhibition was calculated by comparison with simultaneous controls. […]
# whole complement = assay: In vivo complement inhibition in dosed guinea pigs (whole complement, capillary tube assay); conditions: i.p., 200 mg/kg
# Description: as §1
# With reference to Table I, guinea pigs weighing about 300 g were dosed intravenously (i.v.) or intraperitoneally (i.p.) with 200 mg/kg of the test compound dissolved in saline and adjusted to pH 7-8. One hour after dosing, the guinea pigs were decapitated, blood was collected and the serum separated. The serum was tested for whole complement using the capillary tube assay. Percent inhibition was calculated by comparison with simultaneous controls. The results appear in Table I together with results of tests, code 026, 035, 036, Cap 50, % inhibition and Forssman shock.
# shunt pathway = assay: Test, Code 036 (C-Shunt inhibitor): lysis of human erythrocytes via shunt pathway activated by cobra venom factor; assay type: cell-based; conditions: activity in wells, twofold serial dilution assay; higher well number indicates higher activity
# Description: as §1, §2
# [1] = test system: late components of human complement (C3-C9); assay: Test, Code 035 (C3-C9 inhibitor): lysis of EAC 142; assay type: cell-based; conditions: activity in wells, twofold serial dilution assay; higher well number indicates higher activity
# Description: as §1, §2
# complement system = conditions: British Journal of Experimental Pathology, 33, 327-339 (1952); Clin. Exp. Immunol., 10, 127-138 (1972); cited from earlier work
# [2] = test system: hereditary angioneurotic edema; conditions: The New England Journal of Medicine, 286, 808-812 (1972); cited from earlier work
# human serum complement [3] = conditions: as judged by the reduction in total hemolytic complement activity, Pathologie Biologie, 25, 33-36 (1977); cited from earlier work
# human serum complement [4] = conditions: as judged by the reduction in total hemolytic complement activity, Pathologie Biologie, 25, 33-36 (1977); cited from earlier work; remark: listed apart in the source
compound,measurement,setting,value
"O=C(Nc1cc(C(=O)Nc2cc(C(=O)O)cc(C(=O)Nc3ccc(S(=O)(=O)O)c4cc(S(=O)(=O)O)cc(S(=O)(=O)O)c34)c2)cc(C(=O)Nc2cc(C(=O)O)cc(C(=O)Nc3ccc(S(=O)(=O)O)c4cc(S(=O)(=O)O)cc(S(=O)(=O)O)c34)c2)c1)Nc1cc(C(=O)Nc2cc(C(=O)O)cc(C(=O)Nc3ccc(S(=O)(=O)O)c4cc(S(=O)(=O)O)cc(S(=O)(=O)O)c34)c2)cc(C(=O)Nc2cc(C(=O)O)cc(C(=O)Nc3ccc(S(=O)(=O)O)c4cc(S(=O)(=O)O)cc(S(=O)(=O)O)c34)c2)c1 [3,3',3"",3'""-{Ureylenebis[s-phenenylbis(carbonylimino]}tetrakis[5-(4,6,8-trisulfo-1-naphthyl)carbamoyl]benzoic acid dodecasodium salt]",C1 026* Wells,human C1,+7 Wells
same,"In Vivo Activity (Guinea Pig) % Inhibition, Intraperitoneal, 30 minutes",whole complement,-90%
same,"In Vivo Activity (Guinea Pig) % Inhibition, Intraperitoneal, 60 minutes",whole complement,-94%
same,"In Vivo Activity (Guinea Pig) % Inhibition, Intraperitoneal, 120 minutes",whole complement,-89%
same,Shunt Inhibition 036* Wells,shunt pathway,+5 Wells
same,C-Late 035* Wells,[1],+2 Wells
"Nc1cc(C(=O)Nc2cc(C(=O)O)cc(C(=O)Nc3ccc(S(=O)(=O)O)c4cc(S(=O)(=O)O)cc(S(=O)(=O)O)c34)c2)cc(C(=O)Nc2cc(C(=O)O)cc(C(=O)Nc3ccc(S(=O)(=O)O)c4cc(S(=O)(=O)O)cc(S(=O)(=O)O)c34)c2)c1 [3,3'-[5-Amino-m-phenylenebis(carbonylimino)]bis{5-[4,6,8-trisulfo-1-naphthyl)carbamoyl]}benzoic acid hexasodium salt]",C1 026* Wells,human C1,+4 Wells
same,"In Vivo Activity (Guinea Pig) % Inhibition, Intraperitoneal, 30 minutes",whole complement,-40%
same,"In Vivo Activity (Guinea Pig) % Inhibition, Intraperitoneal, 60 minutes",whole complement,-61%
same,"In Vivo Activity (Guinea Pig) % Inhibition, Intraperitoneal, 120 minutes",whole complement,-61%
same,Shunt Inhibition 036* Wells,shunt pathway,+2 Wells
same,C-Late 035* Wells,[1],+2 Wells
"Cc1ccc(C(=O)Nc2ccc(S(=O)(=O)O)c3cc(S(=O)(=O)O)cc(S(=O)(=O)O)c23)cc1NC(=O)c1cc(NC(=O)Nc2cc(C(=O)Nc3cc(C(=O)Nc4ccc(S(=O)(=O)O)c5cc(S(=O)(=O)O)cc(S(=O)(=O)O)c45)ccc3C)cc(C(=O)Nc3cc(C(=O)Nc4ccc(S(=O)(=O)O)c5cc(S(=O)(=O)O)cc(S(=O)(=O)O)c45)ccc3C)c2)cc(C(=O)Nc2cc(C(=O)Nc3ccc(S(=O)(=O)O)c4cc(S(=O)(=O)O)cc(S(=O)(=O)O)c34)ccc2C)c1 [8,8',8"",8'""-{Ureylenebis{s-phenenylbis[carbonylimino(4-methyl-3,1-phenylene)carbonylimino]}}tetra-1,3,5-naphthalenetrisulfonic acid dodecasodium salt]",C1 026* Wells,human C1,+6 Wells
same,"In Vivo Activity (Guinea Pig) % Inhibition, Intraperitoneal, 30 minutes",whole complement,-62%
same,"In Vivo Activity (Guinea Pig) % Inhibition, Intraperitoneal, 60 minutes",whole complement,-84%
same,"In Vivo Activity (Guinea Pig) % Inhibition, Intraperitoneal, 120 minutes",whole complement,-95%
same,Shunt Inhibition 036* Wells,shunt pathway,+4 Wells
same,C-Late 035* Wells,[1],+3 Wells
Cc1ccc(C(=O)Nc2ccc(S(=O)(=O)O)c3cc(S(=O)(=O)O)cc(S(=O)(=O)O)c23)cc1NC(=O)c1cccc(NC(=O)Nc2cccc(C(=O)Nc3cc(C(=O)Nc4ccc(S(=O)(=O)O)c5cc(S(=O)(=O)O)cc(S(=O)(=O)O)c45)ccc3C)c2)c1 [Suramin],effect on the complement system,complement system,competitive inhibitor of the complement system
same,treatment of hereditary angioneurotic edema,[2],used with success
"Nc1ccc2cc(S(=O)(=O)O)cc(O)c2c1N=Nc1ccc(NC(=O)Nc2ccc(N=Nc3c(N)ccc4cc(S(=O)(=O)O)cc(O)c34)c(S(=O)(=O)O)c2)cc1S(=O)(=O)O [chlorazol fast pink, 3,3'-ureylenebis-[6-(2-amino-8-hydroxy-6-sulfo-1-naphthylazo)]benzenesulfonic acid, tetrasodium salt]",effect on the complement system,complement system,anticomplementary effect
NCCCCCC(=O)O [epsilon-aminocaproic acid],treatment of hereditary angioneurotic edema,[2],used with success
NC[C@H]1CC[C@H](C(=O)O)CC1 [tranexamic acid],treatment of hereditary angioneurotic edema,[2],used with success
heparin,effect on the complement system,complement system,anticomplementary effect
pentosan-poly-sulfoester,anticomplementary activity on human serum in vivo,human serum complement [3],anticomplementary activity
same,anticomplementary activity on human serum in vitro,human serum complement [4],anticomplementary activity
